This assay has as its target IDO1 (Homo sapiens, UniProt P14902). Put plainly: IDO1 Cellular Assay in HeLa Cells Stimulated with IFNγ. The settings on record: IFNγ 100 ng/mL, 300 uM L-tryptophan, about 48 hours, fluorescence readout, read-out: IDO1 HELA Cell Assay, IC50. The assay is classed as cell-based. As for the experimental part: Biological Assays IDO1 Cellular Assay in HeLa Cells Stimulated with IFNγ
HeLa cells were cultured in complete HeLa culture medium (90% EMEM, 10% heat-inactivated fetal bovine serum) and expanded to about 1×10^9 cells. The cells were then collected and frozen down at 1×10^7 cells/vial in 1 mL frozen medium (90% complete HeLa culture medium, 10% DMSO).
Compounds to be tested were serially diluted in ten 3-fold steps in DMSO starting from 10 mM DMSO stocks in Echo low volume plate(s). Compound dilutions or DMSO alone were then dispensed from the dilution plate(s) into Greiner black 384-well assay plate(s) (catalog #781086, 50 nL/well) using an Echo 550 acoustic liquid handler (Labcyte).
Frozen HeLa cells were thawed and transferred into HeLa assay medium (99% complete HeLa culture medium, 1% Pen/Strep) with 20 mL medium/vial of cells. The cells were spun down at 250 g in a table top centrifuge for 5 min and suspended in same volume of HeLa assay medium. The cells were then counted and adjusted to a density of 2×10^5 cells/mL in HeLa assay medium. Sterile L-tryptophan were added to the cells with final concentration of 300 uM L-tryptophan. A small aliquot (2 mL/plate) of HeLa cells were set aside and were not treated with IFNγ, to serve as the Max-E control.
HeLa cells with and without IFNγ were dispensed to the respective wells of 384-well assay plates containing the compounds. The plates were incubated for about 48 hours at a 37° C., 5% CO2 incubator. Afterwards, 12 μL of 0.5 M methyl isonipecotate in dimethyl sulfoxide were added into each well and the plates were sealed and incubated at 37° C. without CO2 overnight. The plates were centrifuged for 1 min at 200×g. The resulting fluorescence was measured in a Spectramax plate reader (Molecular Devices) with a 400 nm excitation filter and a 510 nm emission filter.
The fluorescence intensity of each well was corrected for the background observed in wells with non-IFNγ-treated cells and was expressed as a fraction of the intensity observed in wells of IFNγ-treated cells and DMSO only. Potencies were calculated by linear least squares fit to the four parameter logistic IC50 equation.
Compounds disclosed herein generally have IC50 of about 0.1 nM to about 20,000 nM, or more specifically, about 1 nM to about 10,000 nM, or more specifically, about 5 nM to about 5,000 nM, or more specifically, about 10 nM to about 1,000 nM, or still more specifically, about 10 nM to about 500 nM.

pIC50: −log10 of the molar value.

IDO1, sequence (P14902 whole entry): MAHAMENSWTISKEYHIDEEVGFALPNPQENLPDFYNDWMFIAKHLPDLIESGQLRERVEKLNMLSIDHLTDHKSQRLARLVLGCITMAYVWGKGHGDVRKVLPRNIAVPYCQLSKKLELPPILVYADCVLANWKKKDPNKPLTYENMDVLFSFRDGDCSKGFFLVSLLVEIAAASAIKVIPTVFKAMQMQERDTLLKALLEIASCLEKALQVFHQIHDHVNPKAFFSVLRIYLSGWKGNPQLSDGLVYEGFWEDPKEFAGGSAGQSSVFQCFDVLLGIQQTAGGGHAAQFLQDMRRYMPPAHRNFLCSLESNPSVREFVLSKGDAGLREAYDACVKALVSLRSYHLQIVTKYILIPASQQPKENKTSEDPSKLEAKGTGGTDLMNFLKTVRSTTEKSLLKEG

As usually defined, the pIC50 is the negative decadic logarithm of the IC50, by convention in mol/L. For `C[C@@H]1CN(C(=O)c2nn(CC(=O)N3CCC(c4cc(F)cc(Cl)c4)CC3)c3c2CCC3)C[C@H](C)O1` [Example 99, 1-[4-(3-chloro-5-fluorophenyl)piperidin-1-yl]-2-{3-[(2R,6S)-2,6-dimethylmorpholine-4-carbonyl]-5,6-dihydrocyclopenta[c]pyrazol-1(4H)-yl}ethan-1-one], the pIC50 is 7.56. Next, `C[C@@H]1CN(C(=O)c2nn(CC(=O)N3CCC(c4cccc(CC(F)(F)F)c4)CC3)c3c2CCC3)C[C@H](C)O1` [Example 164, 2-{3-[(2R,6S)-2,6-dimethylmorpholine-4-carbonyl]-5,6-dihydrocyclopenta[c]pyrazol-1(4H)-yl}-1-{4-[3-(2,2,2-trifluoroethyl)phenyl]piperidin-1-yl}ethan-1-one]: 6.69; `Cc1cc(F)ccc1C1CCN(C(=O)Cn2nc(C(=O)N3CC[C@@H](O)[C@@H](F)C3)c3c2CCC3)CC1` [Example 55, 1-(4-(4-fluoro-2-methylphenyl)piperidin-1-yl)-2-(3-((3S,4R)-3-fluoro-4-hydroxypiperidine-1-carbonyl)-5,6-dihydrocyclopenta[c]pyrazol-1(4H)-yl)ethanone]: 6.78.

As for `Cc1cccc(C2CCN(C(=O)Cn3nc(C(=O)N4CC[C@@H](O)[C@@H](F)C4)c4c3C[C@@H]3C[C@H]43)CC2)c1C` [Example 27, 1-[4-(2,3-dimethylphenyl)piperidin-1-yl]-2-{(3bS,4aS)-3-[(3S,4R)-3-fluoro-4-hydroxypiperidine-1-carbonyl]-3b,4,4a,5-tetrahydro-1H-cyclopropa[3,4]cyclopenta[1,2-c]pyrazol-1-yl}ethan-1-one], the pIC50 is 7.43. In the case of `C[C@@H]1CN(C(=O)c2nn(CC(=O)N3CCC(c4cccc(F)c4)CC3)c3c2CCC3)C[C@H](C)O1` [Example 130, 2-{3-[(2R,6S)-2,6-dimethylmorpholine-4-carbonyl]-5,6-dihydrocyclopenta[c]pyrazol-1(4H)-yl}-1-[4-(3-fluorophenyl)piperidin-1-yl]ethan-1-one] it was 7.18; in that of `C[C@@H]1CN(C(=O)c2nn(CC(=O)N3CCC(c4cccc5sccc45)CC3)c3c2CCC3)C[C@H](C)O1` [Example 88, 1-[4-(1-benzothiophen-4-yl)piperidin-1-yl]-2-{3-[(2R,6S)-2,6-dimethylmorpholine-4-carbonyl]-5,6-dihydrocyclopenta[c]pyrazol-1(4H)-yl}ethan-1-one], 8.08; in that of `C[C@@H]1CN(C(=O)c2nn(CC(=O)N3CCC(c4ccc5ccccc5c4)CC3)c3c2CCC3)C[C@H](C)O1` [Example 76, 2-{3-[(2R,6S)-2,6-dimethylmorpholine-4-carbonyl]-5,6-dihydrocyclopenta[c]pyrazol-1(4H)-yl}-1-[4-(naphthalen-2-yl)piperidin-1-yl]ethan-1-one], 6.70. Next, `Cc1c(C2CCN(C(=O)Cn3nc(C(=O)N4CCN(C(=O)CO)CC4)c4c3C[C@H]3C[C@@H]43)CC2)cccc1C(F)(F)F` [Example 3, 2-hydroxy-1-(4-((3bR,4aR)-1-(2-(4-(2-methyl-3-(trifluoromethyl)phenyl)piperidin-1-yl)-2-oxoethyl)-3b,4,4a,5-tetrahydro-1H-cyclopropa[3,4]cyclopenta[1,2-c]pyrazole-3-carbonyl)piperazin-1-yl)ethanone]: 8.89; `C[C@@H]1CN(C(=O)c2nn(CC(=O)N3CCC(c4ccc(C(F)(F)F)cc4F)CC3)c3c2CCC3)C[C@H](C)O1` [Example 147, 2-{3-[(2R,6S)-2,6-dimethylmorpholine-4-carbonyl]-5,6-dihydrocyclopenta[c]pyrazol-1(4H)-yl}-1-{4-[2-fluoro-4-(trifluoromethyl)phenyl]piperidin-1-yl}ethan-1-one]: 6.96; `Cc1ccc(F)cc1C1CCN(C(=O)Cn2nc(C(=O)N3C[C@@H](C)O[C@@H](C)C3)c3c2CCC3)CC1` [Example 98, 2-{3-[(2R,6S)-2,6-dimethylmorpholine-4-carbonyl]-5,6-dihydrocyclopenta[c]pyrazol-1(4H)-yl}-1-[4-(5-fluoro-2-methylphenyl)piperidin-1-yl]ethan-1-one]: 7.57. Next, `Cc1cccc(C2CCN(C(=O)Cn3nc(C(=O)N4CCOCC4)c4c3CCC4)CC2)c1C` [Example 46, 1-(4-(2,3-dimethylphenyl)piperidin-1-yl)-2-(3-(morpholine-4-carbonyl)-5,6-dihydrocyclopenta[c]pyrazol-1(4H)-yl)ethan-1-one]: 7.80; `Cc1c(Cl)cc(Cl)cc1C1CCN(C(=O)Cn2nc(C(=O)N3C[C@@H](C)O[C@@H](C)C3)c3c2CCC3)CC1` [Example 122, 1-[4-(3,5-dichloro-2-methylphenyl)piperidin-1-yl]-2-{3-[(2R,6S)-2,6-dimethylmorpholine-4-carbonyl]-5,6-dihydrocyclopenta[c]pyrazol-1(4H)-yl}ethan-1-one]: 7.26. For the compound `Cc1ccc(C2CCN(C(=O)Cn3nc(C(=O)N4C[C@@H](C)O[C@@H](C)C4)c4c3CCC4)CC2)c(C)c1` [Example 105, 2-{3-[(2R,6S)-2,6-dimethylmorpholine-4-carbonyl]-5,6-dihydrocyclopenta[c]pyrazol-1(4H)-yl}-1-[4-(2,4-dimethylphenyl)piperidin-1-yl]ethan-1-one], the pIC50 is 7.52. In the case of `COc1ccc(Cl)cc1C1CCN(C(=O)Cn2nc(C(=O)N3C[C@@H](C)O[C@@H](C)C3)c3c2CCC3)CC1` [Example 170, 1-[4-(5-chloro-2-methoxyphenyl)piperidin-1-yl]-2-{3-[(2R,6S)-2,6-dimethylmorpholine-4-carbonyl]-5,6-dihydrocyclopenta[c]pyrazol-1(4H)-yl}ethan-1-one] it was 6.44; in that of `Cc1cc(C2CCN(C(=O)Cn3nc(C(=O)N4C[C@@H](C)O[C@@H](C)C4)c4c3CCC4)CC2)cc(C)c1Cl` [Example 116, 1-[4-(4-chloro-3,5-dimethylphenyl)piperidin-1-yl]-2-{3-[(2R,6S)-2,6-dimethylmorpholine-4-carbonyl]-5,6-dihydrocyclopenta[c]pyrazol-1(4H)-yl}ethan-1-one], 7.31; in that of `C[C@@H]1CN(C(=O)c2nn(CC(=O)N3CC[C@@H](c4ccccc4)[C@@H](C)C3)c3c2CCC3)C[C@H](C)O1` [Example 79, 2-{3-[(2R,6S)-2,6-dimethylmorpholine-4-carbonyl]-5,6-dihydrocyclopenta[c]pyrazol-1(4H)-yl}-1-[(3R,4R)-3-methyl-4-phenylpiperidin-1-yl]ethan-1-one], 6.45. Next, `C[C@@H]1CN(C(=O)c2nn(CC(=O)N3CCC(c4ccc(C(F)(F)F)c(F)c4)CC3)c3c2CCC3)C[C@H](C)O1` [Example 161, 2-{3-[(2R,6S)-2,6-dimethylmorpholine-4-carbonyl]-5,6-dihydrocyclopenta[c]pyrazol-1(4H)-yl}-1-{4-[3-fluoro-4-(trifluoromethyl)phenyl]piperidin-1-yl}ethan-1-one]: 6.78; `Cc1cccc(C2CCN(C(=O)Cn3nc(C(=O)N4CC[C@](C)(O)C4)c4c3CCC4)CC2)c1C` [Example 49, (S)-1-(4-(2,3-dimethylphenyl)piperidin-1-yl)-2-(3-(3-hydroxy-3-methylpyrrolidine-1-carbonyl)-5,6-dihydrocyclopenta[c]pyrazol-1(4H)-yl)ethan-1-one]: 7.53.
